2 compounds from patent US20220098162A1, “APHTHYLAMINE COMPOUND AND BIOLOGICALLY ACCEPTABLE SALT THEREOF, PREPARATION METHOD THEREFOR, AND APPLICATION THEREOF” (Henan Radiomedical Science and Technology Co., Ltd, priority 2019, published 2022) can be followed below.

Where a name gives a salt, the structure may show the parent alone.

Holding throughout (format): cell-based
The test system of one assay is MCF-7 cells. The assay can be described thus: MTT experiment, MCF-7 cells. To be noted: Homo sapiens, MCF7; MCF-7, MTT, 48 hours, hydrochloride salt. The procedure:
(§1) Experiment on Inducing Apoptosis of Breast Cancer, Colon Cancer and Lung Cancer Cancer Cells
(§2) Method: collecting logarithmic growth phase MDA-MB-231, MCF-7, HCT-116, PC9-AR, PC9-GR, PC9 cells, counting, adjusting the cell suspension concentration to 50000 cells/mL, adding 100 ul cell suspension to each well, that is, 5000 cells per well, and adding the above cancer cells to the hydrochloride of the naphthylamine compounds of 1a and 3a of the invention, to enable the final concentration of the hydrochloride of the naphthylamine compound in the system to be several gradients of 0.1, 0.3, 1, 3, 10, 30, 100, 300 (μmol/L), and continuing culturing for 48 hours; after treating with drug, adding 50 μL of Thiazole Blue reagent (1 mg/mL) to each well, incubating at 37° C. for 4 hours, shaking the plate to discard the liquid in the well, draining the water, absorbing the remaining liquid with filter paper, and then adding 100 μL of dimethyl sulfoxide; reacting on a horizontal shaker for 7-8 minutes, until the blue-violet crystals are completely dissolved; reading the value with a microplate reader, measuring the OD value at the absorption wavelength of 570 nm, recording the result. […]

In a further assay the test system is PC9 cells. In words: MTT experiment, PC9 cells. To be noted: Homo sapiens, PC-9, 48 hours, hydrochloride salt. The procedure:
as §1, §2

The subject of another assay is HCT-116 cells. In words: MTT experiment, HCT-116 cells. The settings on record: Homo sapiens; HCT-116, MTT, 48 hours, hydrochloride salt. As to the method:
as §1, §2

In another assay the test system is PC9AR cells. In words: MTT experiment, PC9-AR cells. To be noted: 48 hours, hydrochloride salt. The procedure:
as §1, §2

Another assay relates to p-STAT3 in HCC827 cells. In words: Westernblot experiment, STAT3 and p-STAT3 in IL-6 stimulated HCC827 cells. To be noted: HCC827, 10, 30, 100 and 300 μmol/L, IL-6 30 ng/mL. As to the method: (1) Taking HCC827 cells in logarithmic growth phase, digesting them with trypsin, preparing a single cell suspension with a density of 300,000 cells/mL with RPMI-1640 medium containing 10% fetal bovine serum, and adding 2 mL of cell suspension to each well to inoculate a 6-well cell culture plate.
(2) Incubating in a 37° C., 5% CO2 incubator. After the cells adhere to the wall, adding the experimental group with different concentrations of the drug SMY002 (3a), and the concentration gradients are: 10, 30, 100 and 300 μmol/L; adding 30 μL of interleukin-6 (IL-6) one hour later at a concentration of […] to stimulate the cells, and the final concentration of interleukin-6 (IL-6) is 30 ng/mL.
(3) After continuing to culture for 0.5 h, lysing the cells with RIPA lysis buffer to collect proteins. […]
(4) Transferring the cell supernatant to a clean centrifuge tube. Dividing the cell supernatant into two parts: taking 5 μL and add it to a 1.5 mL centrifuge tube for BCA to measure the protein content, then adding 45 μL of 1× phosphate buffered saline (PBS) and mixing well for later use; quantitatively taking 140 μL of the remaining cell supernatant, adding 35 μL of 5×SDS loading buffer, boiling in boiling water for 8 minutes after mixing, and storing in a refrigerator at −20° C. after centrifugation. […]

In another assay the test system is PC9GR cells. The assay can be described thus: MTT experiment, PC9-GR cells. To be noted: 48 hours, hydrochloride salt. The procedure: as §1, §2
In another assay the test system is MDA-MB-231 cells. The assay can be described thus: MTT experiment, MDA-MB-231 cells. To be noted: Homo sapiens; MDA-MB-231, MTT, 48 hours, hydrochloride salt. The procedure: as §1, §2

As a reminder, the IC50 is the midpoint of a concentration-inhibition curve. With `Nc1ccc(OCc2ccc(OCCN3CCCCC3)cc2)c2ccccc12` [SMY002 (3a), 4-(4-(2-(piperidin-1-yl)ethoxy)benzyloxy)-1-naphthylamine dihydrochloride], the concentration for half-maximal inhibition (IC50) stood at 2040 nM in the assay on MCF-7 cells; 473 nM in the assay with PC9 cells; 1980 nM in the assay with HCT-116 cells; 655 nM in the assay with PC9AR cells; 472 nM in the assay with PC9GR cells; 1810 nM in the assay with MDA-MB-231 cells. Further, the “amount of STAT3 protein expressed (Westernblot)” value in the assay with p-STAT3 in HCC827 cells was “remains unchanged”. Further, the “expression of p-STAT3 (Westernblot)” value in the assay with p-STAT3 in HCC827 cells is listed as “significantly inhibits”.
With `Nc1ccc(OC(=O)c2ccc(OCCN3CCCCC3)cc2)c2ccccc12` [SMY001 (1a), 4-(2-(piperidin-1-yl)ethoxy) benzoic acid-4-amino-1-naphthyl ester dihydrochloride], the half-inhibitory concentration (IC50) is 26600 nM with PC9 cells; 25400 nM in the assay with HCT-116 cells; 38500 nM in the assay with PC9AR cells; 30400 nM with PC9GR cells; 14900 nM in the assay on MDA-MB-231 cells.
